# Target: Protein cereblon/Kinesin-like protein KIF11 (Homo sapiens, UniProt P52732+Q96SW2)
# Test: PROTAC activity at CRBN/KSP in human HCT-116 cells assessed as induction of KSP degradation at 500 nM incubated for 48 hrs by Western blot analysis relative to control
# Assay type: cell-based
# Conditions: not given
# Chain of Protein cereblon/Kinesin-like protein KIF11 (P52732 whole entry, looked up): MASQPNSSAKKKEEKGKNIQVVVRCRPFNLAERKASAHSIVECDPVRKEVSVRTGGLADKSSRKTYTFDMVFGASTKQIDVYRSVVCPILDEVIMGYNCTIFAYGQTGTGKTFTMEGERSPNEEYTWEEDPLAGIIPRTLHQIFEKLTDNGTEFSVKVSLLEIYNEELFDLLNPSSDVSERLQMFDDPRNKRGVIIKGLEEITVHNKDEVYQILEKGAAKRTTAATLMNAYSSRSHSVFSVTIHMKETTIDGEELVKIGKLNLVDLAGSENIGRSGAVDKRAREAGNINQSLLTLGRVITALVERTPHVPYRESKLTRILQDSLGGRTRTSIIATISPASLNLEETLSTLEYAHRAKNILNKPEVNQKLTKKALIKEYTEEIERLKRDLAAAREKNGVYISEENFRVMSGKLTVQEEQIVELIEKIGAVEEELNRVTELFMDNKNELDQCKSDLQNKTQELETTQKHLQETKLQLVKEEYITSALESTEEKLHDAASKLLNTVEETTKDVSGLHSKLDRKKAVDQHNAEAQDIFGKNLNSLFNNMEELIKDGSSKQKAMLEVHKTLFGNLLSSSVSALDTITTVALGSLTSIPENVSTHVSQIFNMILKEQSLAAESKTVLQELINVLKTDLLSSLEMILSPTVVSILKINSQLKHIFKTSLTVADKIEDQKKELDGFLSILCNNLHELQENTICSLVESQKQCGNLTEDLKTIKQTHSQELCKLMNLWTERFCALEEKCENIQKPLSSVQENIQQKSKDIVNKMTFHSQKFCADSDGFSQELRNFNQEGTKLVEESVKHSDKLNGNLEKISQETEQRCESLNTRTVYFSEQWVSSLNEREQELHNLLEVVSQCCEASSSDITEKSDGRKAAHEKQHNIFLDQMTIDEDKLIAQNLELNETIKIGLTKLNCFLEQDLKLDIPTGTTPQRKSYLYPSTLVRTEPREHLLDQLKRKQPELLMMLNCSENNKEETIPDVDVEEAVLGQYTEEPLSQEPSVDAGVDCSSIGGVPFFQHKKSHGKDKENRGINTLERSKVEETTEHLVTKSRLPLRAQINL
# Chain of Protein cereblon/Kinesin-like protein KIF11 (Q96SW2 whole entry, looked up): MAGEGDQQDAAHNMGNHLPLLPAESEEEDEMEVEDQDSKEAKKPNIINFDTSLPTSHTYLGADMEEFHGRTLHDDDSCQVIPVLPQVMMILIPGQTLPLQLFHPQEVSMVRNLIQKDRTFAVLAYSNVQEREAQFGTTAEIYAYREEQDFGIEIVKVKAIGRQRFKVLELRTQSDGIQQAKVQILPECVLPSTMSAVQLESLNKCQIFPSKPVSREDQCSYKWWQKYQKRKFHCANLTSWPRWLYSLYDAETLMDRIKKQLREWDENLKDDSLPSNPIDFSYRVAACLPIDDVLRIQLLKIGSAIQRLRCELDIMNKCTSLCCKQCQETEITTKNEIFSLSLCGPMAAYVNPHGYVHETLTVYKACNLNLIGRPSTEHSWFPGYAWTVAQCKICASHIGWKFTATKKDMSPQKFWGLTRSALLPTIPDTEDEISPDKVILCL
row,SMILES,Activity
1,COc1ccc(C2(SC[C@H](N)C(=O)NCCOCCNC(=O)COc3cccc4c3C(=O)N(C3CCC(=O)NC3=O)C4=O)c3ccccc3C=Cc3ccccc32)cc1 (stereo partly drawn),60.1%
2,COc1ccc(C2(SC[C@H](N)C(=O)NCCNC(=O)COc3cccc4c3C(=O)N(C3CCC(=O)NC3=O)C4=O)c3ccccc3C=Cc3ccccc32)cc1 (stereo partly drawn),18.5%
3,COc1ccc(C2(SC[C@H](N)C(=O)NCCCCCCCCCCNc3ccc4c(c3)C(=O)N(C3CCC(=O)NC3=O)C4=O)c3ccccc3C=Cc3ccccc32)cc1 (stereo partly drawn),53.9%
4,COc1ccc(C2(SC[C@H](N)C(=O)NCCCCCCNC(=O)COc3cccc4c3C(=O)N(C3CCC(=O)NC3=O)C4=O)c3ccccc3C=Cc3ccccc32)cc1 (stereo partly drawn),52.5%
5,COc1ccc(C2(SC[C@H](N)C(=O)NCCCCCCNc3cccc4c3C(=O)N(C3CCC(=O)NC3=O)C4=O)c3ccccc3C=Cc3ccccc32)cc1 (stereo partly drawn),42.3%
6,COc1ccc(C2(SC[C@H](N)C(=O)NCCCCNc3cccc4c3C(=O)N(C3CCC(=O)NC3=O)C4=O)c3ccccc3C=Cc3ccccc32)cc1 (stereo partly drawn),11.2%
7,COc1ccc(C2(SC[C@H](N)C(=O)NCCOCCNc3cccc4c3C(=O)N(C3CCC(=O)NC3=O)C4=O)c3ccccc3C=Cc3ccccc32)cc1 (stereo partly drawn),12.8%
8,COc1ccc(C2(SC[C@H](N)C(=O)NCCOCCOCCOCCNC(=O)COc3cccc4c3C(=O)N(C3CCC(=O)NC3=O)C4=O)c3ccccc3C=Cc3ccccc32)cc1 (stereo partly drawn),28.3%
9,COc1ccc(C2(SC[C@H](N)C(=O)NCCOCCOCCNc3cccc4c3C(=O)N(C3CCC(=O)NC3=O)C4=O)c3ccccc3C=Cc3ccccc32)cc1 (stereo partly drawn),29.1%
10,COc1ccc(C2(SC[C@H](N)C(=O)NCCCCNc3ccc4c(c3)C(=O)N(C3CCC(=O)NC3=O)C4=O)c3ccccc3C=Cc3ccccc32)cc1 (stereo partly drawn),10.6%
11,COc1ccc(C2(SC[C@H](N)C(=O)NCCCCCCCCCCNc3cccc4c3C(=O)N(C3CCC(=O)NC3=O)C4=O)c3ccccc3C=Cc3ccccc32)cc1 (stereo partly drawn),60.1%
12,COc1ccc(C2(SC[C@H](N)C(=O)NCCCCCCCCCCNC(=O)COc3cccc4c3C(=O)N(C3CCC(=O)NC3=O)C4=O)c3ccccc3C=Cc3ccccc32)cc1 (stereo partly drawn),68.3%
13,COc1ccc(C2(SC[C@H](N)C(=O)NCCCCCNC(=O)COc3cccc4c3C(=O)N(C3CCC(=O)NC3=O)C4=O)c3ccccc3C=Cc3ccccc32)cc1 (stereo partly drawn),46.6%
14,COc1ccc(C2(SC[C@H](N)C(=O)NCCOCCOCCOCCNc3ccc4c(c3)C(=O)N(C3CCC(=O)NC3=O)C4=O)c3ccccc3C=Cc3ccccc32)cc1 (stereo partly drawn),40.6%
15,COc1ccc(C2(SC[C@H](N)C(=O)NCCOCCOCCNC(=O)COc3cccc4c3C(=O)N(C3CCC(=O)NC3=O)C4=O)c3ccccc3C=Cc3ccccc32)cc1 (stereo partly drawn),53.2%
16,COc1ccc(C2(SC[C@H](N)C(=O)NCCOCCOCCOCCNc3cccc4c3C(=O)N(C3CCC(=O)NC3=O)C4=O)c3ccccc3C=Cc3ccccc32)cc1 (stereo partly drawn),43.5%
17,COc1ccc(C2(SC[C@H](N)C(=O)NCCCCCCCCNc3ccc4c(c3)C(=O)N(C3CCC(=O)NC3=O)C4=O)c3ccccc3C=Cc3ccccc32)cc1 (stereo partly drawn),54.3%
18,COc1ccc(C2(SC[C@H](N)C(=O)NCCCCCCCCNc3cccc4c3C(=O)N(C3CCC(=O)NC3=O)C4=O)c3ccccc3C=Cc3ccccc32)cc1 (stereo partly drawn),61.5%
19,COc1ccc(C2(SC[C@H](N)C(=O)NCCCNC(=O)COc3cccc4c3C(=O)N(C3CCC(=O)NC3=O)C4=O)c3ccccc3C=Cc3ccccc32)cc1 (stereo partly drawn),42.1%
20,COc1ccc(C2(SC[C@H](N)C(=O)NCCCCNC(=O)COc3cccc4c3C(=O)N(C3CCC(=O)NC3=O)C4=O)c3ccccc3C=Cc3ccccc32)cc1 (stereo partly drawn),43.6%
21,COc1ccc(C2(SC[C@H](N)C(=O)NCCCCCCNc3ccc4c(c3)C(=O)N(C3CCC(=O)NC3=O)C4=O)c3ccccc3C=Cc3ccccc32)cc1 (stereo partly drawn),35.6%
22,COc1ccc(C2(SC[C@H](N)C(=O)NCCOCCNc3ccc4c(c3)C(=O)N(C3CCC(=O)NC3=O)C4=O)c3ccccc3C=Cc3ccccc32)cc1 (stereo partly drawn),25.7%
23,COc1ccc(C2(SC[C@H](N)C(=O)NCCOCCOCCNc3ccc4c(c3)C(=O)N(C3CCC(=O)NC3=O)C4=O)c3ccccc3C=Cc3ccccc32)cc1 (stereo partly drawn),24.1%

# System: HCT-116
# Test: PROTAC activity at VHL-L/KSP in human HCT-116 cells assessed as induction of KSP degradation at 500 nM incubated for 48 hrs by Western blot analysis relative to control
# Assay type: cell-based
# Conditions: not given
row,SMILES,Activity
1,COc1ccc(C2(SC[C@H](N)C(=O)NCCOCCOCCOCCC(=O)N[C@H](C(=O)N3C[C@H](O)C[C@H]3C(=O)NCc3ccc(-c4scnc4C)cc3)C(C)(C)C)c3ccccc3C=Cc3ccccc32)cc1,32.1%
2,COc1ccc(C2(SC[C@H](N)C(=O)NCCCCCCCCC(=O)N[C@H](C(=O)N3C[C@H](O)C[C@H]3C(=O)NCc3ccc(-c4scnc4C)cc3)C(C)(C)C)c3ccccc3C=Cc3ccccc32)cc1,18.3%
3,COc1ccc(C2(SC[C@H](N)C(=O)NCCOCCOCCC(=O)N[C@H](C(=O)N3C[C@H](O)C[C@H]3C(=O)NCc3ccc(-c4scnc4C)cc3)C(C)(C)C)c3ccccc3C=Cc3ccccc32)cc1,34.5%
4,COc1ccc(C2(SC[C@H](N)C(=O)NCCOCCC(=O)N[C@H](C(=O)N3C[C@H](O)C[C@H]3C(=O)NCc3ccc(-c4scnc4C)cc3)C(C)(C)C)c3ccccc3C=Cc3ccccc32)cc1,42.2%
5,COc1ccc(C2(SC[C@H](N)C(=O)NCCCCC(=O)N[C@H](C(=O)N3C[C@H](O)C[C@H]3C(=O)NCc3ccc(-c4scnc4C)cc3)C(C)(C)C)c3ccccc3C=Cc3ccccc32)cc1,38.3%
6,COc1ccc(C2(SC[C@H](N)C(=O)NCCCCCCC(=O)N[C@H](C(=O)N3C[C@H](O)C[C@H]3C(=O)NCc3ccc(-c4scnc4C)cc3)C(C)(C)C)c3ccccc3C=Cc3ccccc32)cc1,25.2%

# System: HCT-116
# Test: Antiproliferative activity against human HCT-116 cells assessed as inhibition of cell proliferation measured after 72 hrs by CCK8 assay
# Assay type: functional, cell-based
# Conditions: HCT-116, 72 h
row,SMILES,IC50
1,COc1ccc(C2(SC[C@H](N)C(=O)NCCOCCNC(=O)COc3cccc4c3C(=O)N(C3CCC(=O)NC3=O)C4=O)c3ccccc3C=Cc3ccccc32)cc1 (stereo partly drawn),37.4 nM
2,COc1ccc(C2(SC[C@H](N)C(=O)NCCOCCOCCOCCC(=O)N[C@H](C(=O)N3C[C@H](O)C[C@H]3C(=O)NCc3ccc(-c4scnc4C)cc3)C(C)(C)C)c3ccccc3C=Cc3ccccc32)cc1,165 nM
3,COc1ccc(C2(SC[C@H](N)C(=O)NCCNC(=O)COc3cccc4c3C(=O)N(C3CCC(=O)NC3=O)C4=O)c3ccccc3C=Cc3ccccc32)cc1 (stereo partly drawn),313 nM
4,COc1ccc(C2(SC[C@H](N)C(=O)NCCCCCCCCC(=O)N[C@H](C(=O)N3C[C@H](O)C[C@H]3C(=O)NCc3ccc(-c4scnc4C)cc3)C(C)(C)C)c3ccccc3C=Cc3ccccc32)cc1,262 nM
5,COc1ccc(C2(SC[C@H](N)C(=O)NCCCCCCCCCCNc3ccc4c(c3)C(=O)N(C3CCC(=O)NC3=O)C4=O)c3ccccc3C=Cc3ccccc32)cc1 (stereo partly drawn),51.3 nM
6,COc1ccc(C2(SC[C@H](N)C(=O)NCCCCCCNC(=O)COc3cccc4c3C(=O)N(C3CCC(=O)NC3=O)C4=O)c3ccccc3C=Cc3ccccc32)cc1 (stereo partly drawn),52.9 nM
7,COc1ccc(C2(SC[C@H](N)C(=O)NCCCCCCNc3cccc4c3C(=O)N(C3CCC(=O)NC3=O)C4=O)c3ccccc3C=Cc3ccccc32)cc1 (stereo partly drawn),93.4 nM
8,COc1ccc(C2(SC[C@H](N)C(=O)NCCCCNc3cccc4c3C(=O)N(C3CCC(=O)NC3=O)C4=O)c3ccccc3C=Cc3ccccc32)cc1 (stereo partly drawn),247 nM
9,COc1ccc(C2(SC[C@H](N)C(=O)NCCOCCOCCC(=O)N[C@H](C(=O)N3C[C@H](O)C[C@H]3C(=O)NCc3ccc(-c4scnc4C)cc3)C(C)(C)C)c3ccccc3C=Cc3ccccc32)cc1,158 nM
10,COc1ccc(C2(SC[C@H](N)C(=O)NCCOCCNc3cccc4c3C(=O)N(C3CCC(=O)NC3=O)C4=O)c3ccccc3C=Cc3ccccc32)cc1 (stereo partly drawn),366 nM
11,COc1ccc(C2(SC[C@H](N)C(=O)NCCOCCOCCOCCNC(=O)COc3cccc4c3C(=O)N(C3CCC(=O)NC3=O)C4=O)c3ccccc3C=Cc3ccccc32)cc1 (stereo partly drawn),206 nM
12,COc1ccc(C2(SC[C@H](N)C(=O)NCCOCCOCCNc3cccc4c3C(=O)N(C3CCC(=O)NC3=O)C4=O)c3ccccc3C=Cc3ccccc32)cc1 (stereo partly drawn),184 nM
13,COc1ccc(C2(SC[C@H](N)C(=O)NCCCCNc3ccc4c(c3)C(=O)N(C3CCC(=O)NC3=O)C4=O)c3ccccc3C=Cc3ccccc32)cc1 (stereo partly drawn),360 nM
14,COc1ccc(C2(SC[C@H](N)C(=O)NCCCCCCCCCCNc3cccc4c3C(=O)N(C3CCC(=O)NC3=O)C4=O)c3ccccc3C=Cc3ccccc32)cc1 (stereo partly drawn),42.3 nM
15,COc1ccc(C2(SC[C@H](N)C(=O)NCCCCCCCCCCNC(=O)COc3cccc4c3C(=O)N(C3CCC(=O)NC3=O)C4=O)c3ccccc3C=Cc3ccccc32)cc1 (stereo partly drawn),31.6 nM
16,COc1ccc(C2(SC[C@H](N)C(=O)NCCOCCC(=O)N[C@H](C(=O)N3C[C@H](O)C[C@H]3C(=O)NCc3ccc(-c4scnc4C)cc3)C(C)(C)C)c3ccccc3C=Cc3ccccc32)cc1,110 nM
17,COc1ccc(C2(SC[C@H](N)C(=O)NCCCCCNC(=O)COc3cccc4c3C(=O)N(C3CCC(=O)NC3=O)C4=O)c3ccccc3C=Cc3ccccc32)cc1 (stereo partly drawn),66.8 nM
18,COc1ccc(C2(SC[C@H](N)C(=O)NCCCCC(=O)N[C@H](C(=O)N3C[C@H](O)C[C@H]3C(=O)NCc3ccc(-c4scnc4C)cc3)C(C)(C)C)c3ccccc3C=Cc3ccccc32)cc1,130 nM
19,COc1ccc(C2(SC[C@H](N)C(=O)NCCOCCOCCOCCNc3ccc4c(c3)C(=O)N(C3CCC(=O)NC3=O)C4=O)c3ccccc3C=Cc3ccccc32)cc1 (stereo partly drawn),95.4 nM
20,COc1ccc(C2(SC[C@H](N)C(=O)NCCOCCOCCNC(=O)COc3cccc4c3C(=O)N(C3CCC(=O)NC3=O)C4=O)c3ccccc3C=Cc3ccccc32)cc1 (stereo partly drawn),42.2 nM
21,COc1ccc(C2(SC[C@H](N)C(=O)NCCOCCOCCOCCNc3cccc4c3C(=O)N(C3CCC(=O)NC3=O)C4=O)c3ccccc3C=Cc3ccccc32)cc1 (stereo partly drawn),81.3 nM
22,COc1ccc(C2(SC[C@H](N)C(=O)NCCCCCCCCNc3ccc4c(c3)C(=O)N(C3CCC(=O)NC3=O)C4=O)c3ccccc3C=Cc3ccccc32)cc1 (stereo partly drawn),53.8 nM
23,COc1ccc(C2(SC[C@H](N)C(=O)NCCCCCCCCNc3cccc4c3C(=O)N(C3CCC(=O)NC3=O)C4=O)c3ccccc3C=Cc3ccccc32)cc1 (stereo partly drawn),40.8 nM
24,COc1ccc(C2(SC[C@H](N)C(=O)NCCCCCCC(=O)N[C@H](C(=O)N3C[C@H](O)C[C@H]3C(=O)NCc3ccc(-c4scnc4C)cc3)C(C)(C)C)c3ccccc3C=Cc3ccccc32)cc1,181 nM
25,COc1ccc(C2(SC[C@H](N)C(=O)NCCCNC(=O)COc3cccc4c3C(=O)N(C3CCC(=O)NC3=O)C4=O)c3ccccc3C=Cc3ccccc32)cc1 (stereo partly drawn),96.9 nM
26,COc1ccc(C2(SC[C@H](N)C(=O)NCCCCNC(=O)COc3cccc4c3C(=O)N(C3CCC(=O)NC3=O)C4=O)c3ccccc3C=Cc3ccccc32)cc1 (stereo partly drawn),83.7 nM
27,COc1ccc(C2(SC[C@H](N)C(=O)NCCCCCCNc3ccc4c(c3)C(=O)N(C3CCC(=O)NC3=O)C4=O)c3ccccc3C=Cc3ccccc32)cc1 (stereo partly drawn),145 nM
28,COc1ccc(C2(SC[C@H](N)C(=O)NCCOCCNc3ccc4c(c3)C(=O)N(C3CCC(=O)NC3=O)C4=O)c3ccccc3C=Cc3ccccc32)cc1 (stereo partly drawn),203 nM
29,COc1ccc(C2(SC[C@H](N)C(=O)NCCOCCOCCNc3ccc4c(c3)C(=O)N(C3CCC(=O)NC3=O)C4=O)c3ccccc3C=Cc3ccccc32)cc1 (stereo partly drawn),235 nM
